Laboratory results: patent EP2399598B1, “Blockade of CCL18 signaling via CCR6 as a therapeutic option in fibrotic diseases and cancer” (Universitätsklinikum Freiburg, priority 2010, dated 2014)
“Also recorded” adds a separate entry of the source.

Tested on: CCR6
Assay: Inhibition of CCL18-induced CCR6 down-regulation on mononuclear cells (flow cytometry)
Format: cell-based
Settings: freshly isolated human lymphocytes/PBMNC, 20 minutes, FACS; for CCL18 induced down-regulation of CCR6 expression: CCL18 10 ng/ml plus inhibitor 100 ng/ml
Description: Freshly isolated mononuclear cells were incubated for 20 minutes with 10 ng/ml of CCL18, 100ng/ml of the inhibitor peptide PS-AU-105 (polypeptide according to SEQ ID NO.:1), a combination of both or were left untreated. The incubation was performed in RPMI1640 with 10% fetal calf serum and 100 U/ml Streptomycin/Penicillin at 37°C. After the incubation, the cells were centrifugated and the supernatant was discarded. The cells were fixed with 4% paraformaldehyde for 5 minutes on ice and washed twice in PBS containing 1% FCS. After fixation the cells were stained using a fluorescein-conjugated antibody against CCR6 (R&D systems, Wiesbaden, FRG) and analyzed by flow cytometry (FACScalibur and Quantiquest; both Beckon Dickinson, Franklin Lakes, USA).
This CCL18 induced redaction of CCR6 expression is diminished in the presence of the inhibitor peptide PS-AU-105 (polypeptide according to SEQ ID No.: 1).

“PS-AU-105: inhibitor peptide, polypeptide according to SEQ ID NO.:1; 29 amino acids, artificial, peptide inhibitor of CCR6 (EDCCLVYTSWQIHPKFIVDYSETSPQCPK)” was tested, and the “CCL18 induced down-regulation of CCR6 expression” value was “diminished; also recorded: fails to down-regulate the CCR6^+ sub-population”, the “CCL18 induced down-regulation of CCR6 expression” value (listed as PS-AU-1015) was “this down-regulation docs not occur” and the “CCR6 expression, inhibitor only” value (inhibitor 100 ng/ml alone) was “no effect”.
